Measurements: ChEMBL document CHEMBL1201862, “PubChem BioAssay data set” (2004)
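96-well plates; 48 h exposure; 5 concentrations. Endpoints by linear interpolation between flanking doses. Not reached: highest tested concentration assigned. GI50 = concentration required for 50% inhibition of growth.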 Activity calls are given as the source filed them. Cut-off read from the data, not from the text of the source: active = GI50 up to about 1.1 µM and inactive = higher.

Tests used:
Experiment in all cases: inhibition of tumour cell growth, NCI panel, 48 h
[1] = system: SNB-75
[2] = system: U-251
[3] = system: UACC-62
[4] = system: HT-29
[5] = system: MDA-MB-231
[6] = system: MOLT-4
[7] = system: MDA-N
[8] = system: LOX IMVI
[9] = system: NCI-H23
[10] = system: HL-60
[11] = system: BT-549
[12] = system: T47D
[13] = system: SN12C
[14] = system: HOP-62
[15] = system: EKVX
[16] = system: NCI-H460
[17] = system: MDA-MB-435
[18] = system: PC-3
[19] = system: IGROV-1
[20] = system: NCI-H226

SMILES | GI50 [1] | GI50 [2] | GI50 [3] | GI50 [4] | GI50 [5] | GI50 [6] | GI50 [7] | GI50 [8] | GI50 [9] | GI50 [10] | GI50 [11] | GI50 [12] | GI50 [13] | GI50 [14] | GI50 [15] | GI50 [16] | GI50 [17] | GI50 [18] | GI50 [19] | GI50 [20]
S=C(NCCc1ccccn1)N/N=C(\c1ccccc1)c1ccccn1 | 6.47 µM (inactive) | 0.121 µM (active) | 1.03 µM (active) | < 0.01 µM (active) | 0.0247 µM (active) | < 0.01 µM (active) | 8.2 µM (inactive) | 0.301 µM (active) | 0.125 µM (active) | < 0.0359 µM (active) | 3.3 µM (inactive) | < 0.0444 µM (active) | < 0.015 µM (active) | 1.77 µM (inactive) | 0.0525 µM (active) | 0.179 µM (active) | 5.86 µM (inactive) | 0.0583 µM (active) | < 0.0103 µM (active) | 
CCOC(=O)c1ncn(CCc2ccc(Cl)cc2)c1C |  | > 100 µM (inactive) | 42.4 µM (inactive) | > 100 µM (inactive) | > 100 µM (inactive) | > 100 µM (inactive) | 80.5 µM (inactive) | > 100 µM (inactive) | > 100 µM (inactive) | > 100 µM (inactive) | > 100 µM (inactive) |  | > 100 µM (inactive) | > 100 µM (inactive) | > 100 µM (inactive) | > 100 µM (inactive) | > 100 µM (inactive) | > 100 µM (inactive) | > 100 µM (inactive) | > 100 µM (inactive)
CN(CCNC(=O)c1nn(-c2ccc(Cl)cc2Cl)c2c1Cc1ccccc1-2)CCNC(=O)c1nn(-c2ccc(Cl)cc2Cl)c2c1Cc1ccccc1-2 | 5.21 µM (inactive) | 2.49 µM (inactive) | 1.85 µM (inactive) | 2.19 µM (inactive) | 2.66 µM (inactive) | 2.12 µM (inactive) | 2.25 µM (inactive) | 2.07 µM (inactive) | 5.09 µM (inactive) | 1.55 µM (inactive) | 7.38 µM (inactive) | 3.77 µM (inactive) | 3.79 µM (inactive) | 5.21 µM (inactive) | 20 µM (inactive) | 1.75 µM (inactive) | 1.51 µM (inactive) | 5.87 µM (inactive) | 4.53 µM (inactive) | 
COc1ccc(OCc2ccc3nc(-c4ccccc4)c(Cl)nc3c2)cc1 | 36 µM (inactive) | 12.3 µM (inactive) | > 10 µM (inactive) | 76.7 µM (inactive) | 11.7 µM (inactive) | 34.4 µM (inactive) | 52.7 µM (inactive) | 84.5 µM (inactive) | 19 µM (inactive) | 12.3 µM (inactive) | 0.018 µM (active) | 45 µM (inactive) | 24.3 µM (inactive) | 14.2 µM (inactive) | 50.5 µM (inactive) | 16.7 µM (inactive) | 50.6 µM (inactive) | 40.9 µM (inactive) | 38 µM (inactive) | 
c1ccc(C(NCC2CCO2)(c2ccccc2)c2ccccc2)cc1 (stereo not given) | 15.2 µM (inactive) | 23 µM (inactive) | 14.7 µM (inactive) |  | 28.3 µM (inactive) | 30.2 µM (inactive) | 24.3 µM (inactive) | 28.6 µM (inactive) | 16.3 µM (inactive) | 19.3 µM (inactive) | 22.3 µM (inactive) |  | 22.8 µM (inactive) |  | 16.2 µM (inactive) | 16.4 µM (inactive) | 21.1 µM (inactive) | 15.8 µM (inactive) | 15.2 µM (inactive) | 11.3 µM (inactive)
Cc1ccc(/N=N/c2c(O)c(C(=O)Nc3ccccc3)cc3ccccc23)c([N+](=O)[O-])c1 | > 100 µM (inactive) | > 100 µM (inactive) | > 100 µM (inactive) | > 100 µM (inactive) | > 100 µM (inactive) | > 100 µM (inactive) | > 100 µM (inactive) | > 100 µM (inactive) | > 100 µM (inactive) |  | > 100 µM (inactive) | > 100 µM (inactive) | > 100 µM (inactive) | > 100 µM (inactive) | > 100 µM (inactive) |  | > 100 µM (inactive) | > 100 µM (inactive) | > 100 µM (inactive) | 
BrCC[N+]12CCCN1CCC2 | 16.7 µM (inactive) | 16.5 µM (inactive) | 8.83 µM (inactive) | 10.8 µM (inactive) | 17.5 µM (inactive) | 3.43 µM (inactive) | 16.1 µM (inactive) | 11.5 µM (inactive) | 18.5 µM (inactive) | 2.9 µM (inactive) | 14.4 µM (inactive) | 9.93 µM (inactive) | 14.7 µM (inactive) | > 47.3 µM (inactive) | 21.6 µM (inactive) | 22.3 µM (inactive) |  | 17.1 µM (inactive) | 22 µM (inactive) | 33.2 µM (inactive)
COc1cc(COC(=O)NC(Cc2cccs2)C(=O)O)c([N+](=O)[O-])cc1OC (stereo not given) | 59.2 µM (inactive) | > 100 µM (inactive) | > 100 µM (inactive) | > 100 µM (inactive) |  | > 100 µM (inactive) | > 100 µM (inactive) |  | > 100 µM (inactive) | > 100 µM (inactive) | > 100 µM (inactive) | > 100 µM (inactive) | > 100 µM (inactive) | > 100 µM (inactive) | > 100 µM (inactive) | > 100 µM (inactive) | > 100 µM (inactive) | > 100 µM (inactive) | > 100 µM (inactive) | > 100 µM (inactive)
NC(=O)c1cc(-c2ccc(-n3ccnc3)cc2)nnc1O | > 100 µM (inactive) | > 100 µM (inactive) | > 100 µM (inactive) |  |  | > 100 µM (inactive) | > 100 µM (inactive) |  | > 100 µM (inactive) | > 100 µM (inactive) | > 100 µM (inactive) |  | > 100 µM (inactive) | > 100 µM (inactive) | > 100 µM (inactive) | > 100 µM (inactive) | > 100 µM (inactive) | > 100 µM (inactive) | > 100 µM (inactive) | 
CCOP(=O)(OCC)C1C(CO)OC(n2ccc(=O)[nH]c2=O)C1O (stereo not given) | 35.9 µM (inactive) |  | > 100 µM (inactive) | > 100 µM (inactive) | > 100 µM (inactive) | > 10 µM (inactive) | > 100 µM (inactive) | > 100 µM (inactive) |  | > 100 µM (inactive) | > 100 µM (inactive) | > 100 µM (inactive) | > 100 µM (inactive) | > 100 µM (inactive) | > 100 µM (inactive) | > 100 µM (inactive) |  | > 100 µM (inactive) | > 100 µM (inactive) | > 100 µM (inactive)
Cc1c(S(=O)(=O)N/C(N)=N/c2ccc(Cl)cc2)sc2ccc(Cl)cc12 | 19.6 µM (inactive) | 16.3 µM (inactive) | 16.5 µM (inactive) | 19.8 µM (inactive) | 16 µM (inactive) | 28.6 µM (inactive) | 20.1 µM (inactive) | 20 µM (inactive) | 18 µM (inactive) | 25.8 µM (inactive) | 24.4 µM (inactive) | 29.7 µM (inactive) | 15.7 µM (inactive) | 18.5 µM (inactive) | 15.9 µM (inactive) | 16.9 µM (inactive) |  | 14.7 µM (inactive) | 16.1 µM (inactive) | 20.4 µM (inactive)
c1ccc2c3c(ccc2c1)CSCc1ccc2ccccc2c1-3 | > 100 µM (inactive) | > 100 µM (inactive) | > 100 µM (inactive) | > 100 µM (inactive) | > 100 µM (inactive) | 36.6 µM (inactive) | > 100 µM (inactive) | > 100 µM (inactive) | > 100 µM (inactive) | > 10 µM (inactive) | > 100 µM (inactive) | > 100 µM (inactive) | > 100 µM (inactive) | > 100 µM (inactive) | > 100 µM (inactive) |  | > 100 µM (inactive) | > 100 µM (inactive) | > 100 µM (inactive) | 
COc1ccc(C2CC(c3ccc4ccccc4c3O)=NN2)cc1OC (stereo not given) | 56.4 µM (inactive) | 44.1 µM (inactive) | 42.4 µM (inactive) | 47.5 µM (inactive) | 25.2 µM (inactive) | 24.7 µM (inactive) | 21 µM (inactive) |  | 49.9 µM (inactive) |  | 23.5 µM (inactive) | 45 µM (inactive) | 48.6 µM (inactive) | 54.6 µM (inactive) |  | 34.6 µM (inactive) | 27 µM (inactive) | 33.9 µM (inactive) | 83.4 µM (inactive) | > 100 µM (inactive)
CCCCCCC1CC(=O)C1(Cl)Cl (stereo not given) | 16.6 µM (inactive) | 38.3 µM (inactive) | 20.3 µM (inactive) | 26.7 µM (inactive) | 30.7 µM (inactive) | 13.5 µM (inactive) | 25.9 µM (inactive) | 14.8 µM (inactive) | 25.2 µM (inactive) | 2.96 µM (inactive) | 21.4 µM (inactive) | 27.5 µM (inactive) | 29.2 µM (inactive) | 44.7 µM (inactive) | 59.2 µM (inactive) | > 10 µM (inactive) |  | 25.1 µM (inactive) | 25.1 µM (inactive) | 43.9 µM (inactive)
C=C(CN(C)C)C1(c2ccccc2)CC2(CCCC2)C(=O)O1 (stereo not given) | > 100 µM (inactive) | > 100 µM (inactive) | > 100 µM (inactive) | 24.2 µM (inactive) | 64.4 µM (inactive) | 24.9 µM (inactive) | 44.8 µM (inactive) | 53 µM (inactive) | 27.2 µM (inactive) | 23.7 µM (inactive) |  | > 100 µM (inactive) | > 100 µM (inactive) | > 100 µM (inactive) | > 100 µM (inactive) | > 100 µM (inactive) | 56.4 µM (inactive) | 79.6 µM (inactive) | > 100 µM (inactive) | > 100 µM (inactive)
